# According to PubChem BioAssay AID1356 (Sanford-Burnham Center for Chemical Genomics, 2008):
# Tested on: HeLa thapsigargin-induced death, ATPlite luminescence, 24 h
# Experiment: HeLa survival under thapsigargin ER stress – cell-based, HeLa cervical carcinoma, ATP content, SAR follow-up (AID 1356)
# Details: at 25 µM, stronger effect = higher value
# [1] = measured here: survival at thapsigargin 15 uM
# [2] = measured here: survival at thapsigargin 20 uM
# [3] = measured here: survival, thapsigargin level col 9
# [4] = measured here: survival, thapsigargin level col 10
Compound,survival [%],survival [1] [%],survival [2] [%],survival [3] [%],survival [4] [%]
CSc1ccc(C2Nc3ccccc3NC3=C2C(=O)CC(c2ccccc2)C3)cc1 (stereo not given),85,77,23,81,83
CCCOc1ccc(C2Nc3ccccc3NC3=C2C(=O)CC(c2ccc(OC)c(OC)c2)C3)cc1 (stereo not given),91,109,90,88,90
CCOc1cccc(C2Nc3ccccc3NC3=C2C(=O)CC(c2ccc(OC)cc2)C3)c1 (stereo not given),96,8,3,81,106
COc1ccc(C2CC(=O)C3=C(C2)Nc2ccccc2NC3c2cc(C)ccc2C)cc1 (stereo not given),99,83,24,80,81
COc1ccc(C2CC(=O)C3=C(C2)Nc2ccccc2NC3c2ccccc2C(F)(F)F)cc1OC (stereo not given),92,107,72,93,91
CC1(C)CC(=O)C2=C(C1)Nc1ccccc1NC2c1ccc(-c2ccccc2)cc1 (stereo not given),97,106,114,92,88
O=C1CC(c2ccccc2)CC2=C1C(c1c(F)cccc1Cl)Nc1ccccc1N2 (stereo not given),118,89,18,93,99
COc1ccc(C2CC(=O)C3=C(C2)Nc2ccccc2NC3c2cccc(Br)c2)cc1OC (stereo not given),87,93,90,86,92
CCOc1cc(C2Nc3ccccc3NC3=C2C(=O)CC(c2ccc(OC)cc2)C3)cc(Cl)c1O (stereo not given),129,29,8,90,106
COc1ccc(C2CC(=O)C3=C(C2)Nc2ccccc2NC3c2cccc(Oc3ccccc3)c2)cc1OC (stereo not given),90,96,102,87,85
COc1ccc(C2CC(=O)C3=C(C2)Nc2ccccc2NC3c2cccc(C(F)(F)F)c2)cc1OC (stereo not given),90,100,122,88,90
